According to patent US8575068B2, “Pyrazinothiazines having herbicidal action” (BASF SE, priority 2010, dated 2013):

System: Galium aparine
Test: Greenhouse post-emergence herbicidal activity against GALAP
Format: in vivo
Conditions: application rate 0.5 kg/ha, scale 0 to 100
Excerpt: The seeds of the test plants were sown separately for each species. For the post-emergence treatment, the test plants were first grown to a height of 3 to 15 cm, depending on the plant habit, and only then treated with the active ingredients which had been suspended or emulsified in water. For this purpose, the test plants were either sown directly and grown in the same containers, or they were first grown separately as seedlings and transplanted into the test containers a few days prior to treatment. Depending on the species, the plants were kept at 10-25° C. or 20-35° C. The test period extended over 2 to 4 weeks. During this time, the plants were tended, and their response to the individual treatments was evaluated. Evaluation was carried out using a scale from 0 to 100. 100 means no emergence of the plants, or complete destruction of at least the aerial moieties, and 0 means no damage, or normal course of growth. A good herbicidal activity is given at values of at least 70 and a very good herbicidal activity is given at values of at least 85. The plants used in the greenhouse experiments belonged to the following species: [table]

SMILES: COCCOc1cccc(C2=C(O)c3nccnc3N(CC(F)F)S2(=O)=O)c1C(F)(F)F [I-6, 1-(2,2-difluoroethyl)-3-[3-(2-methoxyethoxy)-2-(trifluoromethyl)phenyl]-2,2-dioxo-pyrazino[2,3-c]thiazin-4-ol]
- herbicidal activity against GALAP: very good (a very good herbicidal activity is given at values of at least 85)
